Results from patent US12479816B2, “20-HETE formation inhibitors” (UNIVERSITY OF PITTSBURGH—OF THE COMMONWEALTH SYSTEM OF …, priority 2019, dated 2025).
pIC50: −log10 of the molar value.

Test system: 20-HETE formation (CYP4) in RLM
Test: Inhibition of 20-HETE formation at 250 or 500 nM in RLM microsomal incubations
Assay type: biochemical, rat
Settings: 500 nM compound; RLM 300 μg/ml
Procedure, shortened: (§1)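 Liver or kidney microsomes (300 μg/ml) or rCYP4F2 (25 pmol/mL) were incubated with 100 μM arachidonic acid, 1 mM NADPH and compound at 250 or 500 nM in 0.12 M potassium phosphate/5 mM MgCl2 for 20 min at 37 °C. 20-HETE was measured by UPLC-MS/MS against 20-HETE-d6 and expressed as % of vehicle (n=3).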

Compound | RLM % inh. @ 500 nM
c1ccc(CC2CCN(c3ccn[nH]3)CC2)cc1 [Compound 2, 4-Benzyl-1-(1H-pyrazol-5-yl)piperidine] | 0.00%
COc1cccc(C2CCN(c3ccn[nH]3)CC2)c1 [Compound 7, 4-(3-Methoxyphenyl)-1-(1H-pyrazol-5-yl)piperidine] | 42.30%
COc1cccc(C2CCN(c3cn[nH]c3)CC2)c1 [Compound 8, 4-(3-Methoxyphenyl)-1-(1H-pyrazol-4-yl)piperidine] | 45.50%
CC(=O)Nc1ccc(C2CCN(c3cn[nH]c3)CC2)cc1 [Compound 30, N-(4-(1-(1H-Pyrazol-4-yl)piperidin-4-yl)phenyl)acetamide] | 37.00%

Test system: not listed separately
Test: Turbidometric solubility determination
Assay type: physicochemical
Settings: PBS with 1% DMSO, aqueous buffer, kinetic from dmso stock, room temperature, OD620, read-out: Max Solub
Procedure, shortened: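 Kinetic turbidimetric solubility: DMSO stocks diluted 1:100 into PBS in triplicate to give 0–600 μM in 1% DMSO. Shaken 2 h at room temperature, then OD620 read. Solubility limit taken as the concentration giving a statistically significant absorbance rise above background.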

Compound | solubility at 2 h
COc1cccc(C2CCN(c3ccn[nH]3)CC2)c1 [Compound 7, 4-(3-Methoxyphenyl)-1-(1H-pyrazol-5-yl)piperidine] | 494 µM
COc1cccc(C2CCN(c3cn[nH]c3)CC2)c1 [Compound 8, 4-(3-Methoxyphenyl)-1-(1H-pyrazol-4-yl)piperidine] | 111 µM
CC(=O)Nc1ccc(C2CCN(c3cn[nH]c3)CC2)cc1 [Compound 30, N-(4-(1-(1H-Pyrazol-4-yl)piperidin-4-yl)phenyl)acetamide] | 482 µM

Same assay, conditions: PBS with 1% DMSO, aqueous buffer, kinetic from dmso stock, room temperature, read-out: Solubility_ug/mL

Compound | solubility at 2 h
COc1cccc(C2CCN(c3ccn[nH]3)CC2)c1 [Compound 7, 4-(3-Methoxyphenyl)-1-(1H-pyrazol-5-yl)piperidine] | 127 µg/mL
COc1cccc(C2CCN(c3cn[nH]c3)CC2)c1 [Compound 8, 4-(3-Methoxyphenyl)-1-(1H-pyrazol-4-yl)piperidine] | 29 µg/mL
CC(=O)Nc1ccc(C2CCN(c3cn[nH]c3)CC2)cc1 [Compound 30, N-(4-(1-(1H-Pyrazol-4-yl)piperidin-4-yl)phenyl)acetamide] | 137 µg/mL

Test system: formation of EETs and DiHETs (epoxygenase activity) in HLM
Test: Selectivity: inhibition of EETs and DiHETs formation (epoxygenase activity) in HLM
Assay type: biochemical, human
Settings: at 50,000 (nM per column head)
Description: Selectivity of compounds for inhibition of 20-HETE formation vs inhibition of formation of 8,9-, 11,12-, 14,15-EET and 5,6-, 8,9-, 11,12-, 14,15-DiHETs was assessed via the simultaneous monitor of formation of 20-HETE and those metabolites under the UPLC-MS/MS assay conditions described above using HLM incubations and the same 12 test compound concentrations (0.1 nM-[…]) used for the IC50 determination experiments. At each of the 12 concentrations, the selectivity of 20-HETE inhibition over the other metabolites was compared. Epoxygenase activity was assessed by the sum of EETs and DiHETEs as percentage of control.

Compound | EETs Inhibition, % @ 50,000
COc1cccc(C2CCN(c3ccn[nH]3)CC2)c1 [Compound 7, 4-(3-Methoxyphenyl)-1-(1H-pyrazol-5-yl)piperidine] | 2.6% @ 50,000

Same assay, conditions: sum of EETs and DiHETs

Compound | pIC50
c1ccc(CC2CCN(c3ccn[nH]3)CC2)cc1 [Compound 2, 4-Benzyl-1-(1H-pyrazol-5-yl)piperidine] | < 4.30
COc1cccc(C2CCN(c3cn[nH]c3)CC2)c1 [Compound 8, 4-(3-Methoxyphenyl)-1-(1H-pyrazol-4-yl)piperidine] | < 4.30

Target: T1, rCYP4F2 (Homo sapiens, UniProt P78329)
T1 sequence (P78329 5-520): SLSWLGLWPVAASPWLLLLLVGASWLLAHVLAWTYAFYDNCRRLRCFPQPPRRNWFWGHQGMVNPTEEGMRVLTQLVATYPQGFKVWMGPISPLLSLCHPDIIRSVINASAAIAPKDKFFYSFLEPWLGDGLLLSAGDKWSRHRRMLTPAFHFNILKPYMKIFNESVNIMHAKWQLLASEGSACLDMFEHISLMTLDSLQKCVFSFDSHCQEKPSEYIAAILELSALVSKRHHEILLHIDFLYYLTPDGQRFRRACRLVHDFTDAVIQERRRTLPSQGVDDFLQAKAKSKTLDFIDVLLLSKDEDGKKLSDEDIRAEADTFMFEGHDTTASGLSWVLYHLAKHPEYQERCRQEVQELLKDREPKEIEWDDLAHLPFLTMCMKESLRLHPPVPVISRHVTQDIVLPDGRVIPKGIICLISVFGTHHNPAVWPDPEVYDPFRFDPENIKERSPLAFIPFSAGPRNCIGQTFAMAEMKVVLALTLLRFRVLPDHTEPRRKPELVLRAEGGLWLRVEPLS
Test: Inhibition of 20-HETE formation at 250 or 500 nM in rCYP4F2 incubations
Assay type: biochemical
Settings: 500 nM compound; rCYP4F2 25 pmol/mL; read-out: rCYP4F2 % inh. @ 500 nM
Procedure, shortened: as §1

Compound | inhibition at 0.5 µM
c1ccc(CC2CCN(c3ccn[nH]3)CC2)cc1 [Compound 2, 4-Benzyl-1-(1H-pyrazol-5-yl)piperidine] | 47.6%
COc1cccc(C2CCN(c3ccn[nH]3)CC2)c1 [Compound 7, 4-(3-Methoxyphenyl)-1-(1H-pyrazol-5-yl)piperidine] | 6.5%
COc1cccc(C2CCN(c3cn[nH]c3)CC2)c1 [Compound 8, 4-(3-Methoxyphenyl)-1-(1H-pyrazol-4-yl)piperidine] | 48.9%
CC(=O)Nc1ccc(C2CCN(c3cn[nH]c3)CC2)cc1 [Compound 30, N-(4-(1-(1H-Pyrazol-4-yl)piperidin-4-yl)phenyl)acetamide] | 95%

Test system: not listed separately
Test: HLM stability determination
Assay type: in vitro ADME, human
Settings: HLM 500 μg/ml, 1 μM compound, NADPH, relative to 0 min
Description: HLM stability determinations shown in Table 3 were obtained as follows. Microsomal incubates contained HLM (500 μg/ml), test compounds (1 μM) and NADPH (1.3 mM) in a 1 ml total volume of microsomal incubation buffer (0.12 M potassium phosphate buffer containing 5 mM magnesium chloride). Reaction was started by adding NADPH to the incubates and was carried out at 37° C. in a shaking water bath for 60 min. At 0, 15, 30, 45, 60 min, a 50 μl aliquot of incubates was taken out and reaction was stopped by adding aliquot into 200 μl ice-cold acetonitrile. After centrifugation at 14000×g for 5 min, 200 μl supernatant was taken out for UPLC-MS/MS analysis as described above. Values at 0 min were used as corresponding control for test compounds. Varapamil, metoprolol, and warfarin, categorized as fast, moderate and slow metabolism, were used as positive control. Incubates without NADPH group served as negative control.

Compound | Stability HLM % @ 30 min
c1ccc(CC2CCN(c3ccn[nH]3)CC2)cc1 [Compound 2, 4-Benzyl-1-(1H-pyrazol-5-yl)piperidine] | 61%
CC(=O)Nc1ccc(C2CCN(c3cn[nH]c3)CC2)cc1 [Compound 30, N-(4-(1-(1H-Pyrazol-4-yl)piperidin-4-yl)phenyl)acetamide] | 0%

Test system: 20-HETE formation (CYP4) in RKM
Test: Inhibition of 20-HETE formation at 250 or 500 nM in RKM microsomal incubations
Assay type: biochemical, rat
Settings: 500 nM compound; RKM 300 μg/ml
Procedure, shortened: as §1

Compound | RKM % inh. @ 500 nM
c1ccc(CC2CCN(c3ccn[nH]3)CC2)cc1 [Compound 2, 4-Benzyl-1-(1H-pyrazol-5-yl)piperidine] | 0.00%
COc1cccc(C2CCN(c3ccn[nH]3)CC2)c1 [Compound 7, 4-(3-Methoxyphenyl)-1-(1H-pyrazol-5-yl)piperidine] | 0.00%
COc1cccc(C2CCN(c3cn[nH]c3)CC2)c1 [Compound 8, 4-(3-Methoxyphenyl)-1-(1H-pyrazol-4-yl)piperidine] | 0.00%
CC(=O)Nc1ccc(C2CCN(c3cn[nH]c3)CC2)cc1 [Compound 30, N-(4-(1-(1H-Pyrazol-4-yl)piperidin-4-yl)phenyl)acetamide] | 40.00%

Test system: 20-HETE formation (CYP4) in HLM
Test: Inhibition of 20-HETE formation at 250 or 500 nM in HLM microsomal incubations
Assay type: biochemical, human
Settings: 500 nM compound; HLM 300 μg/ml, AA 100 μM, 20 min
Procedure, shortened: as §1

Compound | HLM % inh. @ 500 nM
c1ccc(CC2CCN(c3ccn[nH]3)CC2)cc1 [Compound 2, 4-Benzyl-1-(1H-pyrazol-5-yl)piperidine] | 59.90%
COc1cccc(C2CCN(c3ccn[nH]3)CC2)c1 [Compound 7, 4-(3-Methoxyphenyl)-1-(1H-pyrazol-5-yl)piperidine] | 51.70%
COc1cccc(C2CCN(c3cn[nH]c3)CC2)c1 [Compound 8, 4-(3-Methoxyphenyl)-1-(1H-pyrazol-4-yl)piperidine] | 62.70%
CC(=O)Nc1ccc(C2CCN(c3cn[nH]c3)CC2)cc1 [Compound 30, N-(4-(1-(1H-Pyrazol-4-yl)piperidin-4-yl)phenyl)acetamide] | 86.00%

Test system: 20-HETE formation (CYP4) in HLM
Test: IC50 determination, 20-HETE formation in HLM
Assay type: biochemical, human
Settings: HLM 300 μg/ml, AA 100 μM, 12 concentrations
Description: Microsomal incubations contained HLM, RLM (300 μg/ml), AA (100 μM), NADPH (1 mM) and test compounds at 12 concentrations (0.1 nM-50 μM) in a 1 ml total volume in microsomal incubation buffer (0.12 M potassium phosphate buffer containing 5 mM magnesium chloride). Reaction was started by adding NADPH to the incubates and was carried out at 37° C. in a shaking water bath for 20 min. Reaction was stopped by placing tubes on ice, followed by adding 12.5 μl 20-HETE-d6 as internal standard to each sample. Microsomal incubations were extracted with 3 ml ethyl ether twice, dried down under nitrogen gas and reconstituted in 125 μl 80:20 methanol:deionized H2O for analysis. 20-HETE formation was quantified using the validated UPLC-MS/MS assay described above and normalized by vehicle group. HET0016 (250 nM) was used as positive control. Incubates without NADPH group served as the negative control. IC50 was determined by fitting the dose-response curve using Graphpad Prism nonlinear regression.

Compound | IC50
c1ccc(CC2CCN(c3ccn[nH]3)CC2)cc1 [Compound 2, 4-Benzyl-1-(1H-pyrazol-5-yl)piperidine] | 0.15 µM
COc1cccc(C2CCN(c3ccn[nH]3)CC2)c1 [Compound 7, 4-(3-Methoxyphenyl)-1-(1H-pyrazol-5-yl)piperidine] | 0.19 µM
COc1cccc(C2CCN(c3cn[nH]c3)CC2)c1 [Compound 8, 4-(3-Methoxyphenyl)-1-(1H-pyrazol-4-yl)piperidine] | 0.17 µM
CC(=O)Nc1ccc(C2CCN(c3cn[nH]c3)CC2)cc1 [Compound 30, N-(4-(1-(1H-Pyrazol-4-yl)piperidin-4-yl)phenyl)acetamide] | 0.05 µM
